The results in this text go back to ChEMBL document CHEMBL1137289, “Structure-activity relationships of novel antibacterial translation inhibitors: 3,5-diamino-piperidinyl triazines” (Bioorg Med Chem Lett, 2006).

In data set [1] the test system is Escherichia coli. In words: Antibacterial activity against wild type impermeable Escherichia coli LMG194. The format is functional.
Data set [2] concerns Escherichia coli. In words: microbe, parasite or virus in culture. The conditions noted are these: ATCC 25922.
Description: Antibacterial activity against Escherichia coli ATCC 25922
The test system of another data set is Staphylococcus aureus. Briefly: microbe, parasite or virus in culture. The conditions noted are these: ATCC 25923.
The subject of data set [3] is Escherichia coli. In words: Inhibition of protein synthesis in Escherichia coli S30 extracts by coupled transcription-translation assay. The format is functional.
The next data set relates to Pseudomonas aeruginosa. In words: Antibacterial activity against Pseudomonas aeruginosa ATCC 27853. The format is functional.
Data set [4] can be described thus: (§1) Cytotoxicity against CEM T cells after 72 hrs by proliferation assay. The class given is cell-based, CCRF-CEM. The conditions noted are these: human, CCRF-CEM (CEM) T cells.
Data set [5] concerns Escherichia coli. In words: Antibacterial activity against isogenic permeable mutant Escherichia coli LMG194. The format is functional.
In the next data set the test system is CCRF-CEM. The description is as §1. The format is cell-based. The following applies: human, ccrf-cem, 72 h.

≈ marks a conversion by molar mass, not a printed value. Where only a bound is given, the exact number is not on record here.

Description for Staphylococcus aureus: Antibacterial activity against Staphylococcus aureus ATCC 25923

The term IC50 denotes the midpoint of a concentration-inhibition curve. As to `N[C@@H]1C[C@H](N)CN(c2nc(Nc3ccc(S(N)(=O)=O)cc3)nc(N3C[C@H](N)C[C@H](N)C3)n2)C1`, the MIC in the data set with Escherichia coli [1], against Escherichia coli [2] and in the data set on Staphylococcus aureus was more than 64 µg/mL throughout. The same compound displayed an IC50 in the data set with Escherichia coli [3] (Escherichia coli) of 4 µM.
With `Cc1cc(C)cc(Nc2nc(N3C[C@H](N)C[C@H](N)C3)nc(N3C[C@H](N)C[C@H](N)C3)n2)c1`, the MIC in the data set with Escherichia coli [1] is more than 64 µg/mL; in the data set on Escherichia coli [2], 64 µg/mL (≈ 150 µM); in the data set with Staphylococcus aureus, 32 µg/mL (≈ 75 µM). For the same compound, the IC50 in the data set with Escherichia coli [3] (Escherichia coli) came out at 13 µM.
Usually CC50 stands for the concentration giving 50% cytotoxicity. Read a low CC50 as harm at low concentration. Consider `N[C@@H]1C[C@H](N)CN(c2nc(Nc3ccc(NC(=O)c4ccc(Cl)cc4)c(O)c3)nc(N3C[C@H](N)C[C@H](N)C3)n2)C1`, for which the MIC in the data set with Pseudomonas aeruginosa was not above 0.5 µg/mL; in the data set with Escherichia coli [2] it was 2 µg/mL (≈ 3.52 µM); against Staphylococcus aureus, 16 µg/mL (≈ 28.2 µM). Further, the half-maximal cytotoxic concentration (CC50) at 72 h in data set [4] was 180 µM. Half-maximal inhibition with Escherichia coli [3] (Escherichia coli) (IC50) required 7 µM.
The corresponding values for `N[C@@H]1C[C@H](N)CN(c2nc(Nc3ccc(C(=O)CC(=O)Nc4ccc(F)c(F)c4)cc3)nc(N3C[C@H](N)C[C@H](N)C3)n2)C1` are 1 µg/mL (≈ 1.68 µM), 4 µg/mL (≈ 6.72 µM), 16 µg/mL (≈ 26.9 µM), 179 µM and 9 µM.
For `N[C@@H]1C[C@H](N)CN(c2nc(Nc3ccc(C(=O)CC(=O)Nc4ccc(-c5ccccc5)cc4)cc3)nc(N3C[C@H](N)C[C@H](N)C3)n2)C1`, the MIC in the data set with Pseudomonas aeruginosa was not above 1 µg/mL; against Escherichia coli [2], 4 µg/mL (≈ 6.29 µM); against Staphylococcus aureus it was 16 µg/mL (≈ 25.2 µM). In data set [4], this compound displayed a half-maximal cytotoxic concentration (CC50) at 72 h of 24 µM. Further, in the data set on Escherichia coli [3] (Escherichia coli), the IC50 came out at 6 µM.
As for `N[C@@H]1C[C@H](N)CN(c2nc(Nc3ccc(C(=O)CC(=O)Nc4ccc5c(c4)OC(F)(F)O5)cc3)nc(N3C[C@H](N)C[C@H](N)C3)n2)C1`, the MIC in the data set with Pseudomonas aeruginosa was determined as 1 µg/mL (≈ 1.56 µM); with Escherichia coli [2], 4 µg/mL (≈ 6.25 µM); against Staphylococcus aureus, 8 µg/mL (≈ 12.5 µM). The compound further had a CC50 at 72 h in data set [4] of 146 µM. The compound further had an IC50 with Escherichia coli [3] (Escherichia coli) of 6 µM.
As for `N[C@@H]1C[C@H](N)CN(c2nc(Nc3ccc(Br)cc3)nc(N3C[C@H](N)C[C@H](N)C3)n2)C1`, the MIC was more than 64 µg/mL in the data set with Escherichia coli [1], more than 64 µg/mL against Escherichia coli [2], more than 64 µg/mL in the data set with Staphylococcus aureus and 4 µg/mL (≈ 8.38 µM) in the data set on Escherichia coli [5]. This compound registered an IC50 in the data set with Escherichia coli [3] (Escherichia coli) of 4 µM.
As to `N[C@@H]1C[C@H](N)CN(c2nc(Nc3ccc([N+](=O)[O-])cc3)nc(N3C[C@H](N)C[C@H](N)C3)n2)C1`, the MIC against Escherichia coli [1] was 32 µg/mL (≈ 72.2 µM); in the data set with Escherichia coli [2], 32 µg/mL (≈ 72.2 µM); in the data set on Staphylococcus aureus, 32 µg/mL (≈ 72.2 µM); against Escherichia coli [5] it was 4 µg/mL (≈ 9.02 µM). The same compound yielded an IC50 in the data set with Escherichia coli [3] (Escherichia coli) of 4 µM.
Take `N[C@@H]1C[C@H](N)CN(c2nc(Nc3ccccc3F)nc(N3C[C@H](N)C[C@H](N)C3)n2)C1`: the MIC in the data set on Escherichia coli [1], in the data set with Escherichia coli [2] and in the data set on Staphylococcus aureus was more than 64 µg/mL each time. In addition, the IC50 in the data set with Escherichia coli [3] (Escherichia coli) turned out to be 5 µM.
Regarding `Cc1ccc2nc(-c3ccc(Nc4nc(N5C[C@H](N)C[C@H](N)C5)nc(N5C[C@H](N)C[C@H](N)C5)n4)cc3)sc2c1`, the MIC with Escherichia coli [2] and against Staphylococcus aureus was 2 µg/mL (≈ 3.66 µM) each time. The midpoint of cytotoxicity in data set [4], the CC50 at 72 h, lay at 33 µM. Moreover, the midpoint of inhibition in the data set with Escherichia coli [3] (Escherichia coli), the IC50, lay at 10 µM.
Take `CN(C)c1ccc(Nc2nc(N3C[C@H](N)C[C@H](N)C3)nc(N3C[C@H](N)C[C@H](N)C3)n2)cc1`: the MIC in the data set on Escherichia coli [1], against Escherichia coli [2] and in the data set on Staphylococcus aureus was more than 64 µg/mL in each case. In the data set on Escherichia coli [3] (Escherichia coli), the IC50 amounted to 11 µM.
In the case of `N[C@@H]1C[C@H](N)CN(c2nc(Nc3ccc4c(c3)CCC4)nc(N3C[C@H](N)C[C@H](N)C3)n2)C1`, the MIC with Escherichia coli [1] was 64 µg/mL (≈ 146 µM); against Escherichia coli [2], more than 64 µg/mL; against Staphylococcus aureus it was 32 µg/mL (≈ 73 µM); in the data set on Escherichia coli [5] it was 8 µg/mL (≈ 18.2 µM). The IC50 in the data set on Escherichia coli [3] (Escherichia coli) came to 15 µM.
Take `COc1ccc(Nc2nc(N3C[C@H](N)C[C@H](N)C3)nc(N3C[C@H](N)C[C@H](N)C3)n2)cc1`: the MIC against Escherichia coli [1], against Escherichia coli [2] and against Staphylococcus aureus was more than 64 µg/mL throughout. The compound further yielded a half-maximal inhibitory concentration (IC50) with Escherichia coli [3] (Escherichia coli) of 14 µM.
`N[C@@H]1C[C@H](N)CN(c2nc(Nc3ccc(C(=O)CC(=O)Nc4cccc(Br)c4)cc3)nc(N3C[C@H](N)C[C@H](N)C3)n2)C1`: the MIC was not above 1 µg/mL in the data set with Pseudomonas aeruginosa, 2 µg/mL (≈ 3.13 µM) against Escherichia coli [2] and 16 µg/mL (≈ 25.1 µM) in the data set with Staphylococcus aureus. Moreover, in data set [4], the CC50 at 72 h was 124 µM. In the data set with Escherichia coli [3] (Escherichia coli), this compound yielded an IC50 of 5 µM.
Turning to `N[C@@H]1C[C@H](N)CN(c2nc(Nc3ccc(NC(=O)c4ccc5ccccc5c4O)cc3)nc(N3C[C@H](N)C[C@H](N)C3)n2)C1`, the MIC against Pseudomonas aeruginosa was found to be 1 µg/mL (≈ 1.71 µM); against Escherichia coli [2], 1 µg/mL (≈ 1.71 µM); in the data set on Staphylococcus aureus it was 2 µg/mL (≈ 3.43 µM). In data set [4], this compound displayed a CC50 at 72 h of 140 µM. In the data set on Escherichia coli [3] (Escherichia coli), the IC50 was found to be 10 µM.
Take `N[C@@H]1C[C@H](N)CN(c2nc(Nc3ccc(F)cc3)nc(N3C[C@H](N)C[C@H](N)C3)n2)C1`: the MIC in the data set with Escherichia coli [1] came out at 32 µg/mL (≈ 76.8 µM); in the data set on Escherichia coli [2] it was 64 µg/mL (≈ 154 µM); against Staphylococcus aureus, 16 µg/mL (≈ 38.4 µM); against Escherichia coli [5], 4 µg/mL (≈ 9.6 µM). This compound yielded an IC50 in the data set with Escherichia coli [3] (Escherichia coli) of 3 µM.
The like results for `N[C@@H]1C[C@H](N)CN(c2nc(Nc3cccc(C(F)(F)F)c3)nc(N3C[C@H](N)C[C@H](N)C3)n2)C1` were, in that order, 32 µg/mL (≈ 68.6 µM), 32 µg/mL (≈ 68.6 µM), 16 µg/mL (≈ 34.3 µM), 4 µg/mL (≈ 8.57 µM) and 5 µM.
Regarding `N[C@@H]1C[C@H](N)CN(c2nc(Nc3ccc(O)cc3)nc(N3C[C@H](N)C[C@H](N)C3)n2)C1`, the MIC against Escherichia coli [1], with Escherichia coli [2] and in the data set with Staphylococcus aureus was more than 64 µg/mL throughout. For the same compound, in the data set with Escherichia coli [3] (Escherichia coli), the IC50 came to 11 µM.
In the data set with Escherichia coli [2], `COc1cc(Nc2nc(N3C[C@H](N)C[C@H](N)C3)nc(N3C[C@H](N)C[C@H](N)C3)n2)ccc1NC(=O)c1ccc(Cl)cc1O` came in with an MIC of 4 µg/mL (≈ 6.69 µM). This compound also came in with an IC50 with Escherichia coli [3] (Escherichia coli) of 8 µM.
The corresponding values for `COc1cccc(Nc2nc(N3C[C@H](N)C[C@H](N)C3)nc(N3C[C@H](N)C[C@H](N)C3)n2)c1NC(=O)c1ccc(Cl)cc1O` are more than 64 µg/mL and 30 µM.
Consider `N[C@@H]1C[C@H](N)CN(c2nc(Nc3ccc(C(=O)CC(=O)Nc4ccccc4Cl)cc3)nc(N3C[C@H](N)C[C@H](N)C3)n2)C1`, for which the MIC was not above 1 µg/mL with Pseudomonas aeruginosa, 4 µg/mL (≈ 6.73 µM) in the data set with Escherichia coli [2] and 16 µg/mL (≈ 26.9 µM) against Staphylococcus aureus. The compound also had a CC50 at 72 h in data set [4] of 71 µM. In addition, 4 µM corresponded to half-maximal inhibition in the data set on Escherichia coli [3] (Escherichia coli) (IC50).
As to `Cc1ccc(S(=O)(=O)N(Cc2ccccc2)c2ccc(Nc3nc(N4C[C@H](N)C[C@H](N)C4)nc(N4C[C@H](N)C[C@H](N)C4)n3)cc2O)cc1`, the values for the MIC against Pseudomonas aeruginosa, against Escherichia coli [2] and in the data set on Staphylococcus aureus were 16 µg/mL (≈ 23.7 µM), 4 µg/mL (≈ 5.94 µM) and 16 µg/mL (≈ 23.7 µM), respectively. Besides, the CC50 at 72 h in data set [4] came to 68 µM. In addition, the IC50 in the data set on Escherichia coli [3] (Escherichia coli) was determined as 4 µM.
With `N[C@@H]1C[C@H](N)CN(c2nc(Nc3ccccc3)nc(N3C[C@H](N)C[C@H](N)C3)n2)C1`, the MIC in the data set with Escherichia coli [1], in the data set on Escherichia coli [2] and against Staphylococcus aureus was more than 64 µg/mL each time. The same compound registered an IC50 with Escherichia coli [3] (Escherichia coli) of 7 µM.
In the case of `N[C@@H]1C[C@H](N)CN(c2nc(Nc3ccc(NC(=O)C(=O)c4c[nH]c5ccccc45)c(O)c3)nc(N3C[C@H](N)C[C@H](N)C3)n2)C1`, the MIC with Pseudomonas aeruginosa is not above 0.5 µg/mL; in the data set with Escherichia coli [2] it was 1 µg/mL (≈ 1.66 µM); in the data set on Staphylococcus aureus, 16 µg/mL (≈ 26.6 µM). This compound gave a CC50 at 72 h in data set [4] of 92 µM. Also, half-maximal inhibition in the data set with Escherichia coli [3] (Escherichia coli) (IC50) required 4 µM.
Regarding `O=C(N[C@H](CO)[C@H](O)c1ccc([N+](=O)[O-])cc1)C(Cl)Cl` [CHLORAMPHENICOL], the MIC against Pseudomonas aeruginosa was more than 64 µg/mL; against Escherichia coli [2] it was 4 µg/mL (≈ 12.4 µM); with Staphylococcus aureus, 8 µg/mL (≈ 24.8 µM). Besides, the IC50 in the data set on Escherichia coli [3] (Escherichia coli) was determined as 1.5 µM.
Take GENTAMICIN: the CC50 with CCRF-CEM is more than 300 µM. This compound also had an IC50 in the data set on Escherichia coli [3] of 0.03 µM.
